Measurements reported in US20100267561A1, “HERBICIDAL PYRIDAZINONE DERIVATIVES” (priority 2007, published 2010).

Columns and labels:
Format in all cases: in vivo
[1] = test system: wheat (Triticum aestivum); experiment: Test A pre-/postemergence plant response
How it was run: (§1)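 Both pre- and postemergence treatment given concurrently; postemergence seedlings measured 2–10 cm at the one- to two-leaf stage. Visual injury, 0–100 scale versus untreated, at ~10 days.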

[2] = test system: velvetleaf (Abutilon theophrasti); experiment: Test A pre-/postemergence plant response
How it was run: as §1

[3] = test system: corn (Zea mays); experiment: Test A pre-/postemergence plant response
How it was run: as §1

[4] = test system: morningglory (Ipomoea coccinea); experiment: Test A pre-/postemergence plant response
How it was run: as §1

[5] = test system: pigweed (Amaranthus retroflexus); experiment: Test A pre-/postemergence plant response
How it was run: as §1

[6] = test system: large crabgrass (Digitaria sanguinalis); experiment: Test A pre-/postemergence plant response
How it was run: as §1

[7] = test system: barnyardgrass (Echinochloa crus-galli); experiment: Test A pre-/postemergence plant response
How it was run: as §1

[8] = test system: ducksalad (Heteranthera limosa); experiment: Test B flooded paddy test plant response
How it was run: (§2)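 Step one: raise plants to 2 leaves. Step two: flood pots 3 cm over the soil and apply compound into the water, keeping this depth. Step three: after 13–15 greenhouse days, score visually versus controls, 0–100, where 100 means complete control.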

[9] = test system: rice (Oryza sativa); experiment: Test B flooded paddy test plant response
How it was run: as §2

[10] = test system: umbrella sedge (Cyperus difformis); experiment: Test B flooded paddy test plant response
How it was run: as §2

[11] = test system: barnyardgrass (Echinochloa crus-galli); experiment: Test B flooded paddy test plant response
How it was run: as §2

[12] = test system: chickweed (Stellaria media); experiment: Test B postemergence plant response; settings: for Chickweed plant response rating: 8 g ai/ha, postemergence, 0-100 scale; for Plant response rating, Chickweed: Postemergence
How it was run: (§3)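 Compounds applied after emergence to 2–18 cm plants; response read visually 13–15 days later on 0 (none) to 100 (complete control); a dash marks no result.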

[13] = test system: winter barley (Hordeum vulgare); experiment: Test B postemergence plant response; settings: for Barley plant response rating: 8 g ai/ha, postemergence, 0-100 scale; for Plant response rating, Barley: Postemergence, scale 0 to 100, 0 no effect, 100 complete control
How it was run: as §3

[14] = test system: canarygrass (Phalaris minor); experiment: Test B postemergence plant response; settings: for Canarygrass plant response rating: 8 g ai/ha, postemergence, 0-100 scale; for Plant response rating, Canarygrass: Postemergence
How it was run: as §3

[15] = test system: windgrass (Apera spica-venti); experiment: Test B postemergence plant response; settings: for Windgrass plant response rating: postemergence, 0-100 scale; for Plant response rating, Windgrass: Postemergence
How it was run: as §3

[16] = Postemergence, 31 g ai/ha, 0 to 100 scale (0 no effect, 100 complete control)
[17] = Postemergence, 125 g ai/ha, 0 to 100 scale, 0 no effect, 100 complete control
[18] = Preemergence, 31 g ai/ha, 0 to 100 scale, 0 is no effect, 100 is complete control
[19] = Preemergence, 125 g ai/ha, 0 to 100 scale (0 no effect, 100 complete control)
[20] = Flood (flooded paddy test), 62 g ai/ha, scale 0 to 100, 0 no effect, 100 complete control
[21] = Flood (flooded paddy test), 125 g ai/ha, scale 0 to 100, 0 no effect, 100 complete control
[22] = Flood (flooded paddy test), 250 g ai/ha, scale 0 to 100, 0 no effect, 100 complete control
[23] = Flood, 31 g ai/ha, scale 0 to 100
[24] = 31 g ai/ha, scale 0 to 100, 0 no effect, 100 complete control
[25] = 62 g ai/ha, scale 0 to 100, 0 no effect, 100 complete control

CCc1cc(-c2ccc(Cl)cc2)nn1-c1c(OC(=O)C(C)(C)C)cnn(C)c1=O [Compound 40]
90: Plant response rating, Wheat [1, 17] | Plant response rating, Wheat [1, 19] | Plant response rating, Corn [3, 16] | Plant response rating, Corn [3, 19]
30: Plant response rating, Corn [3, 18] | Plant response rating, Canarygrass ([14]; 16 g ai/ha, scale 0 to 100)
20: Canarygrass plant response rating [14]
40: Plant response rating, Rice [9, 20] | Plant response rating, Barley ([13]; 16 g ai/ha)
60: Plant response rating, Barnyardgrass [11, 23]
50: Plant response rating, Wheat [1, 18]
85: Plant response rating, Barnyardgrass [11, 20]
0: Plant response rating, Velvetleaf [2, 16] | Plant response rating, Velvetleaf [2, 17] | Plant response rating, Velvetleaf [2, 18] | Plant response rating, Velvetleaf [2, 19] | Plant response rating, Morningglory [4, 16] | Plant response rating, Morningglory [4, 17] | Plant response rating, Morningglory [4, 18] | Plant response rating, Morningglory [4, 19] | Plant response rating, Pigweed [5, 16] | Plant response rating, Pigweed [5, 17] | Plant response rating, Pigweed [5, 18] | Plant response rating, Ducksalad [8, 20] | Plant response rating, Ducksalad [8, 21] | Plant response rating, Ducksalad [8, 22] | Plant response rating, Ducksalad [8, 23] | Plant response rating, Sedge, Umbrella [10, 20] | Plant response rating, Sedge, Umbrella [10, 21] | Plant response rating, Sedge, Umbrella [10, 22] | Plant response rating, Sedge, Umbrella [10, 23] | Chickweed plant response rating [12] | Plant response rating, Chickweed ([12]; 16 g ai/ha, scale 0 to 100) | Plant response rating, Chickweed [12, 24] | Plant response rating, Chickweed [12, 25]
70: Plant response rating, Wheat [1, 16] | Plant response rating, Crabgrass, Large [6, 16] | Plant response rating, Crabgrass, Large [6, 18] | Plant response rating, Rice [9, 21] | Plant response rating, Barley ([13]; 31 g ai/ha) | Plant response rating, Barley ([13]; 62 g ai/ha) | Windgrass plant response rating ([15]; 8 g ai/ha)
100: Plant response rating, Corn [3, 17] | Plant response rating, Crabgrass, Large [6, 17] | Plant response rating, Crabgrass, Large [6, 19] | Plant response rating, Barnyardgrass [7, 16] | Plant response rating, Barnyardgrass [7, 17] | Plant response rating, Barnyardgrass [7, 18] | Plant response rating, Barnyardgrass [7, 19] | Plant response rating, Barnyardgrass [11, 21] | Plant response rating, Barnyardgrass [11, 22] | Plant response rating, Windgrass [15, 25]
35: Plant response rating, Rice [9, 23] | Barley plant response rating [13]
80: Plant response rating, Rice [9, 22] | Plant response rating, Canarygrass [14, 24] | Plant response rating, Canarygrass [14, 25] | Plant response rating, Windgrass ([15]; 16 g ai/ha, scale 0 to 100)

CCc1cc(-c2ccc(Br)cc2)nn1-c1c(O)cnn(C)c1=O [Compound 61]
85: Plant response rating, Canarygrass ([14]; 16 g ai/ha, scale 0 to 100) | Plant response rating, Canarygrass ([14]; 31 g ai/ha, scale 0 to 100) | Plant response rating, Canarygrass [14, 25]
15: Plant response rating, Rice [9, 21]
100: Plant response rating, Corn [3, 16] | Plant response rating, Corn [3, 17] | Plant response rating, Crabgrass, Large [6, 16] | Plant response rating, Crabgrass, Large [6, 17] | Plant response rating, Crabgrass, Large [6, 19] | Plant response rating, Barnyardgrass [7, 16] | Plant response rating, Barnyardgrass [7, 17] | Plant response rating, Barnyardgrass [7, 19] | Plant response rating, Barnyardgrass [11, 22] | Windgrass plant response rating ([15]; 16 g ai/ha) | Plant response rating, Windgrass ([15]; 31 g ai/ha, scale 0 to 100) | Plant response rating, Windgrass [15, 25]
60: Plant response rating, Rice [9, 22]
70: Plant response rating, Wheat [1, 18] | Plant response rating, Corn [3, 18] | Plant response rating, Ducksalad [8, 22] | Barley plant response rating [13]
50: Plant response rating, Barnyardgrass [11, 21]
0: Plant response rating, Velvetleaf [2, 16] | Plant response rating, Velvetleaf [2, 17] | Plant response rating, Velvetleaf [2, 18] | Plant response rating, Velvetleaf [2, 19] | Plant response rating, Morningglory [4, 16] | Plant response rating, Morningglory [4, 17] | Plant response rating, Morningglory [4, 18] | Plant response rating, Morningglory [4, 19] | Plant response rating, Pigweed [5, 16] | Plant response rating, Pigweed [5, 17] | Plant response rating, Pigweed [5, 18] | Plant response rating, Pigweed [5, 19] | Plant response rating, Ducksalad [8, 20] | Plant response rating, Ducksalad [8, 21] | Plant response rating, Ducksalad [8, 23] | Plant response rating, Rice [9, 20] | Plant response rating, Rice [9, 23] | Plant response rating, Sedge, Umbrella [10, 20] | Plant response rating, Sedge, Umbrella [10, 21] | Plant response rating, Sedge, Umbrella [10, 23] | Plant response rating, Barnyardgrass [11, 20] | Plant response rating, Barnyardgrass [11, 23] | Chickweed plant response rating [12] | Plant response rating, Chickweed ([12]; 16 g ai/ha, scale 0 to 100) | Plant response rating, Chickweed ([12]; 31 g ai/ha, scale 0 to 100) | Plant response rating, Chickweed [12, 25]
30: Plant response rating, Sedge, Umbrella [10, 22]
80: Plant response rating, Wheat [1, 16] | Plant response rating, Crabgrass, Large [6, 18] | Canarygrass plant response rating [14]
90: Plant response rating, Wheat [1, 17] | Plant response rating, Wheat [1, 19] | Plant response rating, Corn [3, 19] | Plant response rating, Barnyardgrass [7, 18] | Plant response rating, Barley ([13]; 16 g ai/ha) | Plant response rating, Barley ([13]; 31 g ai/ha) | Plant response rating, Barley ([13]; 62 g ai/ha) | Windgrass plant response rating ([15]; 8 g ai/ha)
